According to patent publication US10570168B2, “2′ and/or 5′ amino-acid ester phosphoramidate 3′-deoxy adenosine derivatives as anti- cancer compounds” (NuCana plc, priority 2014, dated 2020):
pIC50: −log10 of the molar value. Where two headings read alike, the source gives them in different places.

Tests used:
Assay type in all cases: cell-based
RL = test: Solid tumour and haematological malignancy assay (CellTiterGlo); settings: Homo sapiens; for pIC50: read-out: IC50 (absolute IC50); for Emax: read-out: MI %
Experimental: (§1) In vitro viability assay were performed to assess the effects of compounds on cell viability in selected cell lines over 72 hr using the CellTiterGlo (CTG, Promega-G7573) assay. The tests were performed in duplicates with treatment of compounds at 9 points, 3.16 folds titration in 96 well plates over ˜72 hr. The compound starting concentrations were 198 mM. Cell viability assay using CellTiterGlo in 96-well plate were performed. Compound treatment 72 hrs, standard growth conditions, duplicates. Compounds were dissolved to 40 mM with thawed […]. Compounds were serially diluted at 3.16 fold in thawed DMSO, and warmed to 37° C. before being dissolved in media (20 μl+200 μl). After compounds were dissolved in media, media containing compounds were warmed to 37° C. in incubator and then compounds in media were added to cell plates ([…]) in duplicates. The compounds' final concentrations were from 198M to 19.9 nM. All compound solubilities were checked and recorded again, then the plates were transferred to CO2 tissue culture incubator immediately and incubated for 3 days. DMSO final concentration is 0.5%.

NCI-H929 = test: as above; settings: Homo sapiens; for pIC50: read-out: IC50 (absolute IC50); for Emax: read-out: MI %
Experimental: as §1

MOLT-4 [1] = test: as above; settings: Homo sapiens; for pIC50: read-out: IC50 (absolute IC50); for Emax: read-out: MI %
Experimental: as §1

MCF7 = test: as above; settings: Homo sapiens; for pIC50: read-out: IC50 (absolute IC50); for Emax: read-out: MI %
Experimental: as §1, with “The tests were performed in duplicates with treatment of compounds at 9 points, 3.16 folds titration in 96 well plates over ˜72 hr. The compound starting concentrations were 198 mM.” left out, “Compounds were serially diluted at 3.16 fold in thawed DMSO, and warmed to 37° C. before being dissolved in media (20 μl+200 μl).” left out, “The compounds' final concentrations were from 198M to 19.9 nM.” left out

KG-1 [2] = test: as above; settings: Homo sapiens; for pIC50: read-out: IC50 (absolute IC50); for Emax: read-out: MI %
Experimental: as §1, with “The tests were performed in duplicates with treatment of compounds at 9 points, 3.16 folds titration in 96 well plates over ˜72 hr. The compound starting concentrations were 198 mM.” left out, “Compounds were serially diluted at 3.16 fold in thawed DMSO, and warmed to 37° C. before being dissolved in media (20 μl+200 μl).” left out, “The compounds' final concentrations were from 198M to 19.9 nM.” left out

HT29 = test: as above; settings: Homo sapiens; for pIC50: read-out: IC50 (absolute IC50); for Emax: read-out: MI %
Experimental: as §1, with “The tests were performed in duplicates with treatment of compounds at 9 points, 3.16 folds titration in 96 well plates over ˜72 hr. The compound starting concentrations were 198 mM.” left out, “Compounds were serially diluted at 3.16 fold in thawed DMSO, and warmed to 37° C. before being dissolved in media (20 μl+200 μl).” left out, “The compounds' final concentrations were from 198M to 19.9 nM.” left out

CCRFCEM = test: as above; settings: Homo sapiens, CCRF-CEM; for pIC50: read-out: IC50 (absolute IC50); for Emax: read-out: MI %
Experimental: as §1, with “The tests were performed in duplicates with treatment of compounds at 9 points, 3.16 folds titration in 96 well plates over ˜72 hr. The compound starting concentrations were 198 mM.” left out, “Compounds were serially diluted at 3.16 fold in thawed DMSO, and warmed to 37° C. before being dissolved in media (20 μl+200 μl).” left out, “The compounds' final concentrations were from 198M to 19.9 nM.” left out

K562 [3] = test: as above; settings: Homo sapiens; for pIC50: read-out: IC50 (absolute IC50); for Emax: read-out: MI %
Experimental: as §1, with “The tests were performed in duplicates with treatment of compounds at 9 points, 3.16 folds titration in 96 well plates over ˜72 hr. The compound starting concentrations were 198 mM.” left out, “Compounds were serially diluted at 3.16 fold in thawed DMSO, and warmed to 37° C. before being dissolved in media (20 μl+200 μl).” left out, “The compounds' final concentrations were from 198M to 19.9 nM.” left out

HepG2 = test: CellTiterGlo viability assay, initial screening; settings: Homo sapiens, read-out: IC50 (relative IC50)
Experimental: (§2) In vitro viability assays were performed to assess the effects of compounds on cell viability in 7 selected cell lines over 72 hr using the CellTiterGlo (CTG, Promega-G7573) assay. The tests were performed in duplicates with treatment of compounds at 9 points, 3.16 folds titration in 96 well plates over ˜72 hr. The compound starting concentrations were […]. Cell viability assay using CellTiterGlo in 96-well plate were performed. The compound treatment was 72 hrs, under standard growth conditions, and in duplicate. Compounds were dissolved to 40 mM with thawed […]. Compounds were serially diluted at 3.16 fold in thawed DMSO, and warmed to 37° C. before being dissolved in media (2 μl+200 μl). After compounds were dissolved in media (media was also warmed to 37° C.). Media containing compounds were warmed to 37° C. in incubator and then compounds in media were added to cell plates (50 μl+50 μl), in duplicates. The compounds final concentrations were from […] to 19.9 nM. All compound solubilities were checked and recorded again, then the plates were transferred to CO2 tissue culture incubator immediately and incubated for 3 days. DMSO final concentration is 0.5%.

KG-1 [4] = test: CellTiterGlo viability assay, initial screening; settings: Homo sapiens, read-out: IC50 (relative IC50)
Experimental: as §2

MCF-7 = test: CellTiterGlo viability assay, initial screening; settings: Homo sapiens, read-out: IC50 (relative IC50)
Experimental: as §2

K562 [5] = test: CellTiterGlo viability assay, initial screening; settings: Homo sapiens, read-out: IC50 (relative IC50)
Experimental: as §2

MOLT-4 [6] = test: CellTiterGlo viability assay, initial screening; settings: Homo sapiens, read-out: IC50 (relative IC50)
Experimental: as §2

HL-60 = test: CellTiterGlo viability assay, initial screening; settings: Homo sapiens, read-out: IC50 (relative IC50)
Experimental: as §2

CCRF-CEM = test: CellTiterGlo viability assay, initial screening; settings: Homo sapiens, read-out: IC50 (relative IC50)
Experimental: as §2

Compound: COc1nc(N)c2ncn([C@@H]3O[C@H](COP(=O)(N[C@@H](C)C(=O)OCc4ccccc4)Oc4cccc5ccccc45)C[C@H]3O)c2n1 (some centres unmarked) [K]
- pIC50 (RL; 72 h): 4.00 to 4.82
- pIC50 (NCI-H929; NCI-H929, 72 h): 4.82 to 5.30
- pIC50 (MOLT-4 [1]; MOLT-4, 72 h): 4.00 to 4.82
- pIC50 (MCF7; MCF7, 72 h): 4.82 to 5.30
- pIC50 (KG-1 [2]; KG-1, 72 h): 4.00 to 4.82
- pIC50 (HT29; HT-29, 72 h): 4.00 to 4.82
- pIC50 (CCRFCEM; 72 h): 4.82 to 5.30
- pIC50 (K562 [3]; K562, 72 h): 4.00 to 4.82

Compound: CCCCCCOC(=O)[C@H](C)NP(=O)(OC[C@@H]1C[C@H](O)[C@H](n2cnc3c(N)nc(OC)nc32)O1)Oc1ccccc1 (stereo partly drawn) [Compound N, 2-O-methyl-3′-deoxyadenosine-5′-O-[phenyl(1-hexyloxy-L-alaninyl)] phosphate]
- pIC50 (RL; 72 h): 4.00 to 4.82
- Emax (RL; 72 h): 88%
- pIC50 (NCI-H929; NCI-H929, 72 h): 4.00 to 4.82
- Emax (NCI-H929; NCI-H929, 72 h): 99%
- pIC50 (MOLT-4 [1]; MOLT-4, 72 h): 4.00 to 4.82
- Emax (MOLT-4 [1]; MOLT-4, 72 h): 97%
- pIC50 (MCF7; MCF7, 72 h): 4.00 to 4.82
- Emax (MCF7; MCF7, 72 h): 73%
- pIC50 (KG-1 [2]; KG-1, 72 h): 4.00 to 4.82
- Emax (KG-1 [2]; KG-1, 72 h): 96%
- pIC50 (HT29; HT-29, 72 h): 4.00 to 4.82
- Emax (HT29; HT-29, 72 h): 69%
- pIC50 (CCRFCEM; 72 h): 4.00 to 4.82
- Emax (CCRFCEM; 72 h): 93%
- pIC50 (K562 [3]; K562, 72 h): 4.00 to 4.82
- Emax (K562 [3]; K562, 72 h): 78%

Compound: C[C@H](NP(=O)(Oc1ccccc1)O[C@@H]1C[C@@H](CO)O[C@H]1n1cnc2c(N)ncnc21)C(=O)OCc1ccccc1 (stereo partly drawn) [G, (2S)-benzyl 2-(((((2R,3R,5S)-2-(6-amino-9H-purin-9-yl)-5-(hydroxymethyl)tetrahydro-furan-3-yl)oxy)(phenoxy)phosphoryl)amino)propanoate]
- pIC50 (HepG2; HepG2, 72 h): 4.00 to 4.82
- pIC50 (KG-1 [4]; KG-1, 72 h): 4.00 to 4.82
- pIC50 (MCF-7; MCF7, 72 h): 4.82 to 5.30
- pIC50 (K562 [5]; K562, 72 h): 4.00 to 4.82
- pIC50 (MOLT-4 [6]; MOLT-4, 72 h): 4.00 to 4.82
- pIC50 (HL-60; HL-60, 72 h): 4.00 to 4.82
- pIC50 (CCRF-CEM; 72 h): 4.00 to 4.82

Compound: C[C@H](NP(=O)(Oc1cccc2ccccc12)O[C@@H]1C[C@@H](CO)O[C@H]1n1cnc2c(N)ncnc21)C(=O)OCc1ccccc1 (stereo partly drawn) [Compound I, (2S)-benzyl 2-(((((2R,3R,5S)-2-(6-amino-9H-purin-9-yl)-5-(hydroxymethyl)tetrahydro-furan-3-yl)oxy)(naphthalen-1-yloxy)phosphoryl)amino)propanoate]
- pIC50 (HepG2; HepG2, 72 h): 4.00 to 4.82
- pIC50 (KG-1 [4]; KG-1, 72 h): 4.00 to 4.82
- pIC50 (MCF-7; MCF7, 72 h): 4.82 to 5.30
- pIC50 (K562 [5]; K562, 72 h): 4.00 to 4.82
- pIC50 (MOLT-4 [6]; MOLT-4, 72 h): 4.00 to 4.82
- pIC50 (HL-60; HL-60, 72 h): 4.00 to 4.82
- pIC50 (CCRF-CEM; 72 h): 4.00 to 4.82

Compound: COc1nc(N)c2ncn([C@@H]3O[C@H](CO)C[C@H]3O)c2n1 [2-OMe-Cordycepin, 3′-deoxy-2-methoxyadenosine, reference compound]
- pIC50 (RL; 72 hr): < 4.00
- Emax (RL; 72 hr): 0%
- pIC50 (NCI-H929; NCI-H929, 72 hr): < 4.00
- Emax (NCI-H929; NCI-H929, 72 hr): 51%
- pIC50 (MOLT-4 [1]; MOLT-4, 72 hr): < 4.00
- Emax (MOLT-4 [1]; MOLT-4, 72 hr): 1%
- pIC50 (MCF7; MCF7, 72 hr): < 4.00
- Emax (MCF7; MCF7, 72 hr): 8%
- pIC50 (KG-1 [2]; KG-1, 72 hr): < 4.00
- Emax (KG-1 [2]; KG-1, 72 hr): 1%
- pIC50 (HT29; HT-29, HT29, 72 hr): < 4.00
- Emax (HT29; HT-29, HT29, 72 hr): 19%
- pIC50 (CCRFCEM; CCRFCEM, 72 hr): < 4.00
- Emax (CCRFCEM; CCRFCEM, 72 hr): -4%
- pIC50 (K562 [3]; K562, 72 hr): < 4.00
- Emax (K562 [3]; K562, 72 hr): 40%

Compound: CCCCCOC(=O)[C@H](CC(C)C)NP(=O)(OC[C@@H]1C[C@H](O)[C@H](n2cnc3c(N)nc(OC)nc32)O1)Oc1cccc2ccccc12 (some centres unmarked) [Compound M]
- pIC50 (RL; 72 h): 4.82 to 5.30
- Emax (RL; 72 h): 100%
- pIC50 (NCI-H929; NCI-H929, 72 h): 4.82 to 5.30
- Emax (NCI-H929; NCI-H929, 72 h): 99%
- pIC50 (MOLT-4 [1]; MOLT-4, 72 h): 4.82 to 5.30
- Emax (MOLT-4 [1]; MOLT-4, 72 h): 101%
- pIC50 (MCF7; MCF7, 72 h): 4.00 to 4.82
- Emax (MCF7; MCF7, 72 h): 100%
- pIC50 (KG-1 [2]; KG-1, 72 h): 4.00 to 4.82
- Emax (KG-1 [2]; KG-1, 72 h): 102%
- pIC50 (HT29; HT-29, 72 h): 4.00 to 4.82
- Emax (HT29; HT-29, 72 h): 100%
- pIC50 (CCRFCEM; 72 h): 4.82 to 5.30
- Emax (CCRFCEM; 72 h): 100%
- pIC50 (K562 [3]; K562, 72 h): 4.82 to 5.30
- Emax (K562 [3]; K562, 72 h): 100%

Compound: C[C@H](NP(=O)(N[C@@H](C)C(=O)OCc1ccccc1)OC[C@@H]1CC(O)[C@H](n2cnc3c(N)ncnc32)O1)C(=O)OCc1ccccc1 (stereo in doubt) [Compound J, Benzyl 2-[({[5-(6-amino-9H-purin-9-yl)-4-hydroxyoxolan-2-yl]methoxy}({[1-(benzyloxy)-1-oxopropan-2-yl]amino})phosphoryl)amino]propanoate]
- pIC50 (HepG2; HepG2, 72 hr): 4.00 to 4.82
- pIC50 (KG-1 [4]; KG-1, 72 hr): 4.00 to 4.82
- pIC50 (MCF-7; MCF7, MCF-7, 72 hr): 4.00 to 4.82
- pIC50 (K562 [5]; K562, 72 hr): 4.00 to 4.82
- pIC50 (MOLT-4 [6]; MOLT-4, 72 hr): 5.30 to 7.00
- pIC50 (HL-60; HL-60, 72 hr): 4.00 to 4.82
- pIC50 (CCRF-CEM; 72 hr): 4.00 to 4.82
